Test results published in US20160206688A1, “METHODS FOR TREATING BACTEREMIA AND OSTEOMYELITIS USING ORITAVANCIN” (THE MEDICINES COMPANY, priority 2013, published 2016).
≈ marks a conversion by molar mass, not a printed value. Read-outs that look alike come from different tables or passages of the source.

Tests used:
Assay in all cases: Broth microdilution MIC, European bacteraemia isolates 2010-2012
E. faecium = assay type: cell-based, Enterococcus faecium; conditions: for % Resistant, CLSI / % Susceptible, CLSI: CLSI M100-S23 breakpoints; for % Resistant, EUCAST / % Susceptible, EUCAST: EUCAST 2013 breakpoints; for MIC90 / MIC50: Enterococcus faecium; for MIC90 / MIC50 / MIC 50% / MIC Range / MIC 90%: Table 2; for MIC90: read-out: MIC 90%; for MIC50: read-out: MIC 50%
Method: (§1) A total of 2,904 clinical strains responsible for documented bacteremia among unique hospitalized patients in 38 hospitals in 11 European Union countries. Israel, Russia, Turkey and Ukraine were included in this study (2010-2012). Isolates were submitted to a central monitoring laboratory (JMI Laboratories, North Liberty. Iowa. USA), following previously established protocols. Bacterial species identification was performed by using an automated system (Vitek®2; bioMèrieux, Hazelwood, Mo., USA) or conventional biochemical algorithms, as required.
(§2) Isolates were tested for susceptibility by broth microdilution methods following the Clinical and Laboratory Standards Institute (CLSI; M07-A9, 2012) document. Susceptibility testing was performed in cation-adjusted Mueller-Hinton broth (CA-MHB) using dry-form panels manufactured by Thermo Fisher Scientific, formerly TREK Diagnostics Systems/Sensititre (Cleveland. Ohio, USA). These panels provide results equivalent to the CLSI-approved broth microdilution method supplemented with 0.002% polysorbate-80.
(§3) Quality assurance was performed by concurrent testing of CLSI-recommended (M100-S23, 2013) strains: E. faecalis ATCC 29212 and S. aureus ATCC 29213. Interpretation of comparator MIC results was in accordance with published CLSI (M100-S23) and European Committee on Antimicrobial Susceptibility Testing (EUCAST, 2013) criteria.

E. faecalis = assay type: cell-based, Enterococcus faecalis; conditions: for % Resistant, CLSI / % Susceptible, CLSI: CLSI M100-S23 breakpoints; for % Resistant, EUCAST / % Susceptible, EUCAST: EUCAST 2013 breakpoints; for % susceptible: E. faecalis strains, criteria not stated; for MIC50 / MIC90: Enterococcus faecalis; for MIC50: read-out: MIC 50%; for MIC90: read-out: MIC 90%
Method: as §1, §2, §3

S. aureus = assay type: cell-based; conditions: S. aureus Methicillin-resistant (1,708); for % Resistant, CLSI / % Susceptible, CLSI: CLSI M100-S23 breakpoints; for % Resistant, EUCAST / % Susceptible, EUCAST: EUCAST 2013 breakpoints; for MIC50 / MIC90: Staphylococcus aureus; for MIC50: read-out: MIC 50%; for MIC90: read-out: MIC 90%
Method: as §1, §2, §3

[1] = tested on: Coagulase-negative staphylococci; assay type: cell-based, coagulase-negative staphylococci (CoNS); conditions: Coagulase-negative staphylococci (646); for MIC50: read-out: MIC 50%; for MIC90: read-out: MIC 90%
Method: as §1, §2, §3

[2] = E. faecium Vancomycin-resistant (VanA-phenotype) (153)
[3] = E. faecium Vancomycin-susceptible (257)

Compound: CC1(C)S[C@@H]2[C@H](NC(=O)[C@H](N)c3ccccc3)C(=O)N2[C@H]1C(=O)O [Ampicillin]
- % Resistant, CLSI (E. faecium; [2]): 100.0%
- % Susceptible, CLSI (E. faecium; [2]): 0.0%
- % Resistant, EUCAST (E. faecium; [2]): 100.0%
- % Susceptible, EUCAST (E. faecium; [2]): 0.0%
- % Resistant, CLSI (E. faecium; [3]): 94.2%
- % Susceptible, CLSI (E. faecium; [3]): 5.8%
- % Resistant, EUCAST (E. faecium; [3]): 94.2%
- % Susceptible, EUCAST (E. faecium; [3]): 5.4%
- MIC90 (E. faecium; [2]): > 8 µg/mL
- MIC50 (E. faecium; [3]): > 8 µg/mL
- MIC90 (E. faecium; [3]): > 8 µg/mL
- MIC 50% (E. faecium; [2]): >8 µg/mL
- MIC Range (E. faecium; [2]): >8 µg/mL
- % Resistant, CLSI (E. faecalis; E. faecalis (445)): 0.0%
- % Susceptible, CLSI (E. faecalis; E. faecalis (445)): 100.0%
- % Resistant, EUCAST (E. faecalis; E. faecalis (445)): 0.0%
- % Susceptible, EUCAST (E. faecalis; E. faecalis (445)): 99.6%
- % susceptible (E. faecalis): 99.6%
- MIC50 (E. faecalis; Table 2, E. faecalis (445)): ≤ 1 µg/mL
- MIC90 (E. faecalis; Table 2, E. faecalis (445)): 2 µg/mL (≈ 5.72 µM)
- MIC 50% (E. faecalis; Table 2, E. faecalis (445)): ≦1 mg/L
- MIC Range (E. faecalis; Table 2, E. faecalis (445), includes four VanA-phenotype strains): ≦1-8 mg/L

Compound: CCC[C@@H]1C[C@@H](C(=O)N[C@@H]([C@H]2O[C@H](SC)[C@H](O)[C@@H](O)[C@H]2O)[C@H](C)Cl)N(C)C1 [Clindamycin]
- % Resistant, CLSI (S. aureus): 40.3%
- % Susceptible, CLSI (S. aureus): 59.1%
- % Resistant, EUCAST (S. aureus): 40.9%
- % Susceptible, EUCAST (S. aureus): 58.9%
- MIC50 (S. aureus; Table 2): ≤ 0.25 µg/mL
- MIC90 (S. aureus; Table 2): > 2 µg/mL
- % Resistant, CLSI ([1]; CLSI M100-S23 breakpoints): 26.0%
- MIC50 ([1]; Table 2): ≤ 0.25 µg/mL
- MIC90 ([1]; Table 2): > 2 µg/mL

Compound: CC[C@H]1OC(=O)[C@H](C)[C@@H](O[C@H]2C[C@@](C)(OC)[C@@H](O)[C@H](C)O2)[C@H](C)[C@@H](O[C@@H]2O[C@H](C)C[C@H](N(C)C)[C@H]2O)[C@](C)(O)C[C@@H](C)C(=O)[C@H](C)[C@@H](O)[C@]1(C)O [Erythromycin]
- % Resistant, CLSI (S. aureus): 68.0%
- % Susceptible, CLSI (S. aureus): 29.6%
- % Resistant, EUCAST (S. aureus): 69.1%
- % Susceptible, EUCAST (S. aureus): 29.8%
- MIC50 (S. aureus; Table 2): > 4 µg/mL
- MIC90 (S. aureus; Table 2): > 4 µg/mL
- % Resistant, CLSI (E. faecium; [2]): 98.1%
- % Susceptible, CLSI (E. faecium; [2]): 0.0%
- % Resistant, CLSI (E. faecium; [3]): 91.4%
- % Susceptible, CLSI (E. faecium; [3]): 3.5%
- MIC90 (E. faecium; [2]): > 4 µg/mL
- MIC50 (E. faecium; [3]): > 4 µg/mL
- MIC90 (E. faecium; [3]): > 4 µg/mL
- MIC 50% (E. faecium; [2]): >4 µg/mL
- % Resistant, CLSI ([1]; CLSI M100-S23 breakpoints): 65.1%
- MIC50 ([1]; Table 2): > 4 µg/mL
- MIC90 ([1]; Table 2): > 4 µg/mL
- % Resistant, CLSI (E. faecalis; E. faecalis (445)): 54.8%
- % Susceptible, CLSI (E. faecalis; E. faecalis (445)): 8.1%
- MIC50 (E. faecalis; Table 2, E. faecalis (445)): > 4 µg/mL
- MIC90 (E. faecalis; Table 2, E. faecalis (445)): > 4 µg/mL

Compound: C[C@H]1COc2c(N3CCN(C)CC3)c(F)cc3c(=O)c(C(=O)O)cn1c23 [Levofloxacin]
- % Resistant, CLSI (S. aureus): 90.3%
- % Susceptible, CLSI (S. aureus): 8.6%
- % Resistant, EUCAST (S. aureus): 90.3%
- % Susceptible, EUCAST (S. aureus): 8.6%
- MIC50 (S. aureus; Table 2): > 4 µg/mL
- MIC90 (S. aureus; Table 2): > 4 µg/mL
- % Resistant, CLSI (E. faecium; [2]): 100.0%
- % Susceptible, CLSI (E. faecium; [2]): 0.0%
- % Resistant, CLSI (E. faecium; [3]): 89.1%
- % Susceptible, CLSI (E. faecium; [3]): 5.8%
- MIC90 (E. faecium; [2]): > 4 µg/mL
- MIC50 (E. faecium; [3]): > 4 µg/mL
- MIC90 (E. faecium; [3]): > 4 µg/mL
- MIC 50% (E. faecium; [2]): >4 µg/mL
- MIC Range (E. faecium; [2]): >4 µg/mL
- % Resistant, CLSI ([1]; CLSI M100-S23 breakpoints): 56.2%
- MIC50 ([1]; Table 2): 4 µg/mL (≈ 11.1 µM)
- MIC90 ([1]; Table 2): > 4 µg/mL
- % Resistant, CLSI (E. faecalis; E. faecalis (445)): 35.3%
- % Susceptible, CLSI (E. faecalis; E. faecalis (445)): 64.3%
- MIC50 (E. faecalis; Table 2, E. faecalis (445)): 1 µg/mL (≈ 2.77 µM)
- MIC90 (E. faecalis; Table 2, E. faecalis (445)): > 4 µg/mL

Compound: Cc1onc(-c2ccccc2)c1C(=O)N[C@@H]1C(=O)N2[C@@H]1SC(C)(C)[C@@H]2C(=O)O [Oxacillin]
- % Resistant, CLSI ([1]; CLSI M100-S23 breakpoints): 78.8%
- MIC50 ([1]; Table 2): > 2 µg/mL
- MIC90 ([1]; Table 2): > 2 µg/mL

Compound: CN(C)[C@@H]1C(O)=C(C(N)=O)C(=O)[C@@]2(O)C(O)=C3C(=O)c4c(O)cccc4[C@@](C)(O)[C@H]3C[C@@H]12 [Tetracycline]
- % Resistant, CLSI (S. aureus): 14.2%
- % Susceptible, CLSI (S. aureus): 84.9%
- % Resistant, EUCAST (S. aureus): 15.1%
- % Susceptible, EUCAST (S. aureus): 84.4%
- MIC50 (S. aureus; Table 2): ≤ 0.25 µg/mL
- MIC90 (S. aureus; Table 2): > 8 µg/mL
- % Resistant, CLSI (E. faecium; [2]): 41.5%
- % Susceptible, CLSI (E. faecium; [2]): 58.5%
- % Resistant, CLSI (E. faecium; [3]): 43.2%
- % Susceptible, CLSI (E. faecium; [3]): 56.0%
- MIC90 (E. faecium; [2]): > 8 µg/mL
- MIC50 (E. faecium; [3]): 0.5 µg/mL (≈ 1.13 µM)
- MIC90 (E. faecium; [3]): > 8 µg/mL
- MIC 50% (E. faecium; [2]): 0.5 µg/mL (≈ 1.13 µM)
- % Resistant, CLSI ([1]; CLSI M100-S23 breakpoints): 15.2%
- MIC50 ([1]; Table 2): 1 µg/mL (≈ 2.25 µM)
- MIC90 ([1]; Table 2): > 8 µg/mL
- % Resistant, CLSI (E. faecalis; E. faecalis (445)): 73.5%
- % Susceptible, CLSI (E. faecalis; E. faecalis (445)): 26.5%
- MIC50 (E. faecalis; Table 2, E. faecalis (445)): > 8 µg/mL
- MIC90 (E. faecalis; Table 2, E. faecalis (445)): > 8 µg/mL

Compound: Teicoplanin
- % Resistant, CLSI (S. aureus): 0.0%
- % Susceptible, CLSI (S. aureus): 100.0%
- % Resistant, EUCAST (S. aureus): 0.0%
- % Susceptible, EUCAST (S. aureus): 100.0%
- MIC 50% (S. aureus; Table 2): ≦2 mg/L
- MIC 90% (S. aureus; Table 2): ≦2 mg/L
- MIC Range (S. aureus; Table 2): ≦2 mg/L
- % Resistant, CLSI (E. faecium; [2]): 96.2%
- % Susceptible, CLSI (E. faecium; [2]): 0.0%
- % Resistant, EUCAST (E. faecium; [2]): 100.0%
- % Susceptible, EUCAST (E. faecium; [2]): 0.0%
- % Resistant, CLSI (E. faecium; [3]): 0.0%
- % Susceptible, CLSI (E. faecium; [3]): 100.0%
- % Resistant, EUCAST (E. faecium; [3]): 0.4%
- % Susceptible, EUCAST (E. faecium; [3]): 99.6%
- MIC 50% (E. faecium; [2]): >8 µg/mL
- MIC 90% (E. faecium; [2]): >8 µg/mL
- MIC Range (E. faecium; [2]): >8 µg/mL
- MIC 50% (E. faecium; [3]): ≦2 mg/L
- MIC 90% (E. faecium; [3]): ≦2 mg/L
- MIC Range (E. faecium; [3]): ≦2-4 mg/L
- % Resistant, CLSI ([1]; CLSI M100-S23 breakpoints): 0.8%
- % Susceptible, CLSI ([1]; CLSI M100-S23 breakpoints): 97.7%
- % Resistant, EUCAST ([1]; EUCAST 2013 breakpoints): 11.1%
- % Susceptible, EUCAST ([1]; EUCAST 2013 breakpoints): 88.9%
- MIC 50% ([1]; Table 2): ≦2 mg/L
- MIC 90% ([1]; Table 2): 8 µg/mL
- % Resistant, CLSI (E. faecalis; E. faecalis (445)): 0.9%
- % Susceptible, CLSI (E. faecalis; E. faecalis (445)): 99.1%
- % Resistant, EUCAST (E. faecalis; E. faecalis (445)): 0.9%
- % Susceptible, EUCAST (E. faecalis; E. faecalis (445)): 99.1%
- % susceptible (E. faecalis): 99.1%
- MIC 50% (E. faecalis; Table 2, E. faecalis (445)): ≦2 mg/L
- MIC 90% (E. faecalis; Table 2, E. faecalis (445)): ≦2 mg/L
